Among the data in the NIST ThermoML archive (doi:10.1021/acs.jced.6b00686) are refractive index values, retold here.

± gives the expanded uncertainty stated by the source.

The nature of the data set: refractive index (Na D-line) (dimensionless). Particulars: 293.15 K; 101.3 kPa; Liquid; Standard Abbe refractometry.

Broadly, the refractive index is the speed of light in vacuum divided by its phase velocity in the sample. Consider `O=C(O)CS` [2-mercaptoacetic acid], for which the refractive index is given as 1.5027 ± 0.0005.

For `CC(=O)OCC(C)C` [2-methylpropyl ethanoate], the refractive index is listed as 1.3905 ± 0.0005.

On to `CCCCOC(C)=O` [butyl ethanoate], for which the refractive index was 1.394 ± 0.0005.

In the case of `CCCCOC=O` [butyl methanoate], the refractive index was found to be 1.3887 ± 0.0005.

Take `O` [water]: the refractive index came to 1.3327 ± 0.0005.
